For data set [1], the target named is T1, human alpha 1a adrenergic receptor (Homo sapiens, UniProt P35348).
T1 sequence (P35348 1-466): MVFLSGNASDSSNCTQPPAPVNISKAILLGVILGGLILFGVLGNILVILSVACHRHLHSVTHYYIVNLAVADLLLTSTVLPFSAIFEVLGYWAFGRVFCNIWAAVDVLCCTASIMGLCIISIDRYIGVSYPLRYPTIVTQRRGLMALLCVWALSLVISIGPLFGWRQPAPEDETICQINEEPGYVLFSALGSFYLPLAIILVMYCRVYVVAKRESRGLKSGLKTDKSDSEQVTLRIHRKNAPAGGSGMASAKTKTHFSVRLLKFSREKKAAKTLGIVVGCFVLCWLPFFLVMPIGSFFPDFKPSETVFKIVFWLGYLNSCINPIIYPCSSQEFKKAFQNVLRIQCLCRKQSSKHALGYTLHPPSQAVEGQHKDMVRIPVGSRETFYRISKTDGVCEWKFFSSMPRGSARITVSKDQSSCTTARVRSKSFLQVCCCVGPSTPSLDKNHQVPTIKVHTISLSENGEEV
Nature of the data set: Screening assay: alpha 1a adrenergic receptor binding ([125I]-HEAT competition). The conditions noted are these: membranes from stably transfected human alpha 1a cell line (ATCC CRL 11140), 100 pM [125I]-HEAT. As to the method: Screening Assay: Alpha 1a Adrenergic Receptor Binding
These competition binding reactions (total volume=200 μl) contained 50 mM Tris-HCl pH. […] Reactions were incubated at room temperature for one hour with shaking. Reactions were filtered onto Whatman GF/C glass fiber filters with a Inotec 96 well cell harvester. Filters were washed three times with ice cold buffer and bound radioactivity was determined (Ki).

Where a name gives a salt, the structure may show the parent alone.

In turn, `CCOC(=O)CN1C(=O)N(CCCN2CCC(C#N)(c3ccccc3C)CC2)C(=O)C1(c1ccc(C)cc1)c1ccc(C)cc1` [Compound 35, 1 -Ethoxycarbonylmethyl-3-{3-[4-(2-methylphenyl)-4-cyanopiperidin-1-yl]propyl}bis-5,5-(4-methylphenyl)-imidazolin-2,4-dione] returned a melting point of 63 to 65 °C. In turn, `Cc1ccc(C2(c3ccc(C)cc3)NC(=O)N(CCCN3CCC4(CC3)Cc3ccccc3C4=O)C2=O)cc1` [Compound 20, 3-{3-(2,3-dihydro-spiro[indeno-2,4′-piperidin]-1(2H)-on-1-yl)propyl}-5,5-bis(4-methylphenyl)-imidazolin-2,4-dione] came in with a melting point of 201 to 205 °C. In data set [1], this molecule registered an inhibitory constant (Ki) of less than 20 nM. For `Cc1ccc(C2(c3ccc(C)cc3)NC(=O)N(CCCCN3CCC4(CC3)C(=O)Cc3ccccc34)C2=O)cc1` [Compound 19, 3-{4-(2,3-dihydro-spiro[indeno-1,4′-piperidin]-2(3H)-on-1′-yl)butyl}-5,5-bis(4-methylphenyl)-imidazolin-2,4-dione], in that order: 76 to 88 °C and less than 20 nM. For `Cc1ccc(C2(c3ccc(C)cc3)NC(=O)N(CCCN3CCN(c4ccccc4C(N)=O)CC3)C2=O)cc1` (as salt: hydrochloride) [Compound 25, 3-{3-[4-(2-aminocarbonylphenyl)-piperazin-1-yl]propyl}-5,5-bis(4-methylphenyl)-imidazolin-2,4-dione dihydrochloride], the melting point fell in the range of 160 to 163 °C. Consider `N#CC1(c2ccccc2)CCN(CCCN2C(=O)NC(c3ccccc3)(c3ccccc3)C2=O)CC1` [Compound 15, 3-[3-(4-phenyl-4-cyanopiperidin-1-yl)propyl]-5,5-bis(phenyl)-imidazolin-2,4-dione], for which the melting point was 161 to 163 °C. The molecule also displayed a Ki in data set [1] of less than 20 nM. For `Cc1ccc(C2(c3ccc(C)cc3)NC(=O)N(CCCN3CCC4(CC3)C(=O)N(C)c3ccccc34)C2=O)cc1` [Compound 22, 3-{3-(1-methyl-spiro[3H-indole-3,4′piperidin]-2(1H)-on-1′-yl)propyl}-5,5-bis(4-methylphenyl)-imidazolin-2,4-dione], in that order: 127 to 135 °C and less than 20 nM. The molecule `CC1(c2ccccc2)NC(=O)N(CCCN2CCC(C#N)(c3ccccc3)CC2)C1=O` (racemic) (as salt: hydrochloride) returned a melting point of 222 to 223 °C. The same measure, in the same setting: next, `Cc1ccc(C2(c3ccc(C)cc3)NC(=O)N(CCCN3CCC(n4c(=O)[nH]c5cc(Cl)ccc54)CC3)C2=O)cc1` [Compound 34, 3-{3-[4-(5-chloro-2-oxo-1-benzimidazolinyl)piperidin-1-yl]propyl}-5,5-bis(4-methylphenyl)-imidazolin-2,4-dione]: 144 to 155 °C. With `Cc1ccc(C2(c3ccc(C)cc3)NC(=O)N(CCCN3CCC(C#N)(c4ccccc4C)CC3)C2=O)cc1` [Compound 2, 3-{3-[4-(2-Methylphenyl)-4-cyanopiperidin-1-yl]propyl}-5,5-bis(4-methylphenyl)-imidazolin-2,4-dione], the melting point fell in the range of 164 to 165 °C. Also, the inhibition constant Ki in data set [1] was less than 20 nM. As for `Cc1ccc(C2(c3ccc(C)cc3)C(=O)N(CCCN3CCC(C#N)(c4ccccc4C)CC3)C(=O)N2C)cc1` [Compound 36, 1-Methyl-3-{3-[4-(2-methylphenyl)-4-cyanopiperidin-1-yl]propyl}-bis-5,5-(4-methylphenyl)-imidazolin-2,4-dione], the inhibitory constant (Ki) in data set [1] is less than 20 nM. Same read-out and setting: next, `Cc1ccc(C2(c3ccc(C)cc3)NC(=O)N(CCCN3CCC4(CC3)C(=O)Nc3ccccc34)C2=O)cc1` [Compound 21, 3-{3-(spiro[3H-indole-3,4′-piperidin]-2(1H)-on-1′-yl)propyl}-5,5-bis(4-methylphenyl)-imidazolin-2,4-dione hydrochloride]: less than 20 nM. `Cc1ccc(C2(c3ccc(C)cc3)NC(=O)N(CCCN3CCC4(CCc5ccccc54)CC3)C2=O)cc1` [Compound 18, 3-{3-(2,3-dihydro-spiro[indeno-1,4′-piperidin]-1′yl)propyl}-5,5-bis(4-methylphenyl)-imidazolin-2,4-dione] had a melting point of 170 to 172 °C. The same molecule had a Ki in data set [1] of less than 20 nM. `N#CC1(c2ccccc2)CCN(CCCN2C(=O)NC(c3ccc(Cl)cc3)(c3ccc(Cl)cc3)C2=O)CC1` [Compound 10, 3-{3-[4-phenyl-4-cyanopiperidin-1-yl]propyl}-5,5-bis(4-chlorophenyl)-imidazolin-2,4-dione hydrochloride] displayed an inhibition constant (Ki) in data set [1] of less than 20 nM. In the case of `Cc1ccc(C2(c3ccc(C)cc3)NC(=O)N(CCCN3CCC(c4ccccn4)CC3)C2=O)cc1` [Compound 3, 3-{3-[4-(2-Pyridyl)piperidin-1-yl]propyl}-5,5-bis(4-methylphenyl)-imidazolin-2,4-dione], the Ki in data set [1] is less than 20 nM. Still for that read-out and setting: next, `Cc1ccc(C2(c3ccc(C)cc3)NC(=O)N(CCCN3CCC4(CC3)OC(=O)Nc3ccccc34)C2=O)cc1` [Compound 6, 3-{3-(spiro[4H-3,1-benzoxazine-4,4′-piperidin]-2(1H)-on-1′-yl)propyl}-5,5-bis(4-methylphenyl)-imidazolin-2,4-dione]: less than 20 nM; `Cc1ccc(C2(c3ccc(C)cc3)NC(=O)N(CCCN3CCN(c4ccccc4C#N)CC3)C2=O)cc1` [Compound 27, 3-{3-[4-(2-cyanophenyl)-piperazin-1-yl]propyl}-5,5-bis(4-methylphenyl)-imidazolin-2,4-dione hydrochloride]: less than 20 nM; `Cc1ccc(C2(c3ccc(C)cc3)NC(=O)N(CCCCN3CCC4(C=Cc5ccccc54)CC3)C2=O)cc1` [Compound 28, 3-{4-(spiro[indeno-1,4′-piperidin]-1′-yl)butyl}-5,5-bis(4-methylphenyl)-imidazolin-2,4-dione]: less than 20 nM. Still for that read-out and setting: to `Cc1ccc(C2(c3ccc(C)cc3)NC(=O)N(CCCN3CCC4(CC3)OC(=O)Nc3ccc(Cl)cc34)C2=O)cc1` [Compound 7, 3-{3-(6-chloro-spiro[4H-3,1-benzoxazine-4,4′-piperidin]-2(1H)-on-1′-yl)propyl}-5,5-bis(4-methylphenyl)-imidazolin-2,4-dione] belongs less than 20 nM; to `Cc1ccc(C2(c3ccc(C)cc3)NC(=O)N(CCCN3CCC(c4ccc(F)cc4C#N)CC3)C2=O)cc1` [Compound 26], less than 20 nM; to `CCCCCC1(c2ccc(C)cc2)NC(=O)N(CCCN2CCC(C#N)(c3ccccc3C)CC2)C1=O` (racemic) [Compound 16], less than 20 nM. `Cc1ccc(C2(c3ccc(C)cc3)NC(=O)N(CCCN3CCC4(CC3)C(=O)Nc3ccccc34)C2=O)cc1` (as salt: hydrochloride) [Compound 21, 3-{3-(spiro[3H-indole-3,4′-piperidin]-2(1H)-on-1′-yl)propyl}-5,5-bis(4-methylphenyl)-imidazolin-2,4-dione hydrochloride] came in with a melting point greater than 210 °C. On the same count and under the same terms, next, `COCN1C(=O)N(CCCN2CCC(C#N)(c3ccccc3C)CC2)C(=O)C1(c1ccc(C)cc1)c1ccc(C)cc1`: 53 to 55 °C. Still for that read-out and setting: to `Cc1ccc(C2(c3ccc(C)cc3)NC(=O)N(CCCN3CCN(c4ccccc4C#N)CC3)C2=O)cc1` (as salt: hydrochloride) [Compound 27, 3-{3-[4-(2-cyanophenyl)-piperazin-1-yl]propyl}-5,5-bis(4-methylphenyl)-imidazolin-2,4-dione hydrochloride] belongs 236 °C. Regarding `Cc1ccc(C2(c3ccc(C)cc3)NC(=O)N(CCCN3CCC(C#N)(c4ccccc4)CC3)C2=O)cc1` [Compound 1, 3-[3-(4-Phenyl-4-cyanopiperidin-1-yl)propyl]-5,5-bis(4-methylphenyl)-imidazolin-2,4-dione], the Ki in data set [1] was less than 20 nM.

In turn, `COC(=O)C1CN(CCCN2C(=O)NC(c3ccc(C)cc3)(c3ccc(C)cc3)C2=O)CCC1Nc1ccccc1Cl.Cl` (racemic) displayed a melting point of 160 to 163 °C. The molecule `Cc1ccc(C2(c3ccc(C)cc3)NC(=O)N(CCCN3CCC4(CC3)OC(=O)N(CC(F)(F)F)c3ccc(Cl)cc34)C2=O)cc1` [Compound 29, 3-{3-[1-(2,2,2-trifluoroethyl)-6-chloro-spiro[4H-3,1-benzoxazine-4,4′-piperidin]-2(1H)-on-1′-yl]propyl}-5,5-bis(4-methylphenyl)-imidazolin-2,4-dione] displayed an inhibition constant (Ki) in data set [1] of less than 20 nM.

Usually melting point stands for the temperature, or range, at which the solid turns liquid. The term Ki denotes a dissociation constant, usually derived from enzyme kinetics or from competition with a known ligand. The low end stands for a stronger hold on the target, the high end for a looser hold on the target.

These data come from patent US6436962B1, “Arylhydantoin derivatives and uses thereof” (Merck & Co., Inc., priority 1999, dated 2002).
